Marks after values point to notes of the source that are not given here.
Columns and labels:
[1] = Example 7 feeding test in growing pigs; format: in vivo; conditions: Olagvindox 50 ppm, 33 test days
Protocol: An amount of a product obtained from baking yeast by hydrolytic treatment, was added to the fodder of growing pigs. The measurement was implemented as in the preceding example.

[2] = Example 6 feeding test in growing piglets, growth and diarrhoea; format: in vivo
Protocol: An amount of a product obtained from baking yeast by hydrolytic treatment, was added to the fodder of growing piglets. The fodder for the reference group contained Olaqvindox chemotherapeutic substance, 50 mg/kg. In the fodder for the yeast group, instead of Olaqvindox, yeast fraction was added in an amount of 0.5%.

[3] = Example 5 feeding test, development of piglets; format: in vivo, pigs
Source text: In this test, four equal groups of pigs were fed with the following fodders:
Group 1: basic fodder (reference)
Group 2: basic fodder+40 ppm Avilamysine
Group 3: basic fodder+product prepared from yeast by hydrolytic treatment, in an amount of 0.5 w-% (of dry matter)
Group 4: basic fodder+product prepared from yeast by hydrolytic treatment, in an amount of 1.0 w-% (of dry matter).

[4] = group 2, basic fodder + 40 ppm Avilamysine

Compound | Fodder efficiency kg/kg [1] [kg/kg] | Additional growth, g/day ([1]; initial weight 21.7 kg) | Additional growth ([2]; Olaqvindox 50 ppm in fodder) [g/day] | Fodder efficiency kg/kg ([2]; Olaqvindox 50 ppm in fodder) [kg/kg] | Final weight ([2]; Olaqvindox 50 ppm in fodder, initial weight 7.10 kg) [kg] | Diarrhoea index ([2]; Olaqvindox 50 ppm, average, 1 = normal faeces, 2 = loose faeces, 3 = watery diarrhoea) | Treatments for diarrhoea, % of farrows ([2]; Olaqvindox 50 ppm, treated with an antibiotic or with zinc oxide because of diarrhoea) | effect on growth and fodder consumption compared with the reference group ([3]; 40 ppm Avilamysine) | ADG [3, 4] [g/day] | FCR kg fodder/kg Weight increase [3, 4] [kg fodder/kg] | Final weight ([3]; group 2, basic fodder + 40 ppm Avilamysine, starting weight 10.6 kg) [kg]
Cc1c(C(=O)NCCO)[n+]([O-])c2ccccc2[n+]1[O-] [Olaqvindox] | 2.07 | 777^a g/day | 255 | 1.61 | 12.47 | 2.5 | 100 % of farrows |  |  |  | 
Avilamysine |  |  |  |  |  |  |  | increased the growth and fodder consumption effectively | 502 | 1.81 | 24.1

Source: patent US20020061345A1, “PROCEDURE FOR PREPARING A FOOD ADDITIVE, AND AN ADDITIVE AND ITS USE” (priority 1996, published 2002)
